# Test results: patent publication US7732468B2, “3-aryl-6-aryl-[ 1,2,4]triazolo[3,4-b][1,3,4]thiadiazoles and related compounds as activators of caspases and inducers of apoptosis and the use thereof” (Cytovia, Inc., priority 2006, dated 2010)
# Experiments:
# Format in all cases: cell-based
# [1] = system: human colon carcinoma cell line HCT116; experiment: Caspase cascade activation in HCT116 cells; conditions: HCT-116, 48 h incubation, read-out: caspase potency EC50 HCT116
# Description: (§1) Human breast cancer cell lines T-47D, human hepatocellular carcinoma cell line SNU398, human colon carcinoma cell line HCT116, human cancer cell line H11299, human Burkitt's lymphoma cell line Namalwa, human lymphoma cell line Raji, and human B cell lymphoblastoid cell line Ramos were grown according to media component mixtures designated by American Type Culture Collection+10% FCS (Invitrogen Corporation), in a 5% CO2-95% humidity incubator at 37° C. T-47D and H1299 cells were maintained at a cell density between 50 and 80% confluency at a cell density of 0.1 to 0.6×10^6 cells/mL. Cells were harvested at 600×g and resuspended at 0.65×10^6 cells/mL into appropriate media+10% FCS. An aliquot of 22.5 μL of cells was added to a well of a 384-well microtiter plate containing 2.5 μL of a 10% DMSO in RPMI-1640 media solution containing 0.16 to 100 μM of 6-(3,4-dimethoxyphenyl)-3-(2-methoxyphenyl)-[1,2,4]triazolo[3,4-b][1,3,4]thiadiazole or other test compound (0.016 to 10 μM final). An aliquot of 22.5 μL of cells was added to a well of a 384-well microtiter plate containing 2.5 μL of a 10% DMSO in RPMI-1640 media solution without test compound as the control sample. The samples were mixed by agitation and then incubated at 37° C. for 48 h in a 5% CO2-95% humidity incubator. After incubation, the samples were removed from the incubator and 25 μL of a solution containing 14 μM of N-(Ac-DEVD)-N′-ethoxycarbonyl-R110 (SEQ ID No.:1) fluorogenic substrate (Cytovia, Inc.; WO99/18856), 20% sucrose (Sigma), 20 mM DTT (Sigma), 200 mM NaCl (Sigma), 40 mM Na PIPES buffer pH 7.2 (Sigma), and 500 μg/mL lysolecithin (Calbiochem) was added. The samples were mixed by agitation and incubated at room temperature. Using a fluorescent plate reader (Model SPECTRAfluor Plus, Tecan), an initial reading (T=0) was made approximately 1-2 min after addition of the substrate solution, employing excitation at 485 nm and emission at 530 nm, to determine the background fluorescence of the control sample. After the 3 h incubation, the samples were read for fluorescence as above (T=3 h).
# (§2) The Relative Fluorescence Unit values (RFU) were used to calculate the sample readings as follows: RFU(T=3h)−Control RFU(T=0)=Net RFU(T=3h)
# (§3) The activity of caspase cascade activation was determined by the ratio of the net RFU value for 6-(3,4-dimethoxyphenyl)-3-(2-methoxyphenyl)-[1,2,4]triazolo[3,4-b][1,3,4]thiadiazole (Example I) or other test compound to that of control samples. The EC50 (nM) was determined by a sigmoidal dose-response calculation (Prism 3.0, GraphPad Software Inc.).
# [2] = system: human lymphoma cell line Raji; experiment: Inhibition of cell proliferation (GI50) in Raji cells; conditions: 48 h incubation
# Description: (§4) Human breast cancer cell lines T-47D, MX1 and MDAMB435, human colon carcinoma cell line HCT116, human leukemia cell line K562, human lymphoma cell line Raji, human B cell lymphoblastoid cell line Ramos, and human Burkitt's lymphoma cell line Namalwa were grown and harvested as in Example 14. An aliquot of […] of cells (4.4×10^4 cells/mL) was added to a well of a 96-well microtiter plate containing 5 μL of a 10% DMSO in RPMI-1640 media solution containing 10 nM to 100 μM of 6-(3,4-dimethoxyphenyl)-3-(2-methoxyphenyl)-[1,2,4]triazolo[3,4-b][1,3,4]thiadiazole (1 nM to 10 μM final). An aliquot of 45 μL of cells was added to a well of a 96-well microtiter plate containing 5 μL of a 10% DMSO in RPMI-1640 media solution without compound as the control sample for maximal cell proliferation (LMax). The samples were mixed by agitation and then incubated at 37° C. for 48 h in a 5% CO2-95% humidity incubator. After incubation, the samples were removed from the incubator and 25 μL of CellTiter-Glo™ reagent (Promega) was added. The samples were mixed by agitation and incubated at room temperature for 10-15 min. Plates were then read using a luminescent plate reader (Model SPECTRAfluor Plus, Tecan) to give Ltest values.
# (§5) The samples were mixed by agitation and then incubated at 37° C. for 0.5 h in a 5% CO2-95% humidity incubator. After incubation, the samples were removed from the incubator and 25 μL of CellTiter-Glo™ reagent (Promega) was added. The samples were mixed by agitation and incubated at […] 10-15 min at room temperature in a 5% CO2-95% humidity incubator. Fluorescence was read as above, (LStart) defining luminescence for initial cell number used as baseline in GI50 determinations.
# (§6) GI50 (dose for 50% inhibition of cell proliferation) is the concentration where [(LTest−LStart)/(LMax−LStart)]=0.5.
# [3] = system: human Burkitt's lymphoma cell line Namalwa; experiment: Inhibition of cell proliferation (GI50) in Namalwa cells; conditions: Burkitts lymphoma cell, 48 h incubation
# Description: as §4, §5, §6
# [4] = system: human Burkitt's lymphoma cell line Namalwa; experiment: Caspase cascade activation in Namalwa cells; conditions: Burkitts lymphoma cell, 48 h incubation, read-out: caspase potency EC50 Namalwa
# Description: as §1, §2, §3
# [5] = system: human leukemia cell line K562; experiment: Inhibition of cell proliferation (GI50) in K562 cells; conditions: 48 h incubation
# Description: as §4, §5, §6
# [6] = system: human B cell lymphoblastoid cell line Ramos; experiment: Caspase cascade activation in Ramos cells; conditions: 48 h incubation, read-out: caspase potency EC50 RAMOS
# Description: as §1, §2, §3
# [7] = system: Human breast cancer cell lines T-47D; experiment: Caspase cascade activation (Ac-DEVD-R110 fluorogenic substrate) in T-47D cells; conditions: T47D cells, 48 h incubation, read-out: caspase potency EC50 T47D
# Description: as §1, §2, §3
# [8] = system: human B cell lymphoblastoid cell line Ramos; experiment: Inhibition of cell proliferation (GI50) in Ramos cells; conditions: 48 h incubation
# Description: as §4, §5, §6
# [9] = system: human colon carcinoma cell line HCT116; experiment: Inhibition of cell proliferation (GI50) in HCT116 cells; conditions: HCT 116 cells, 48 h incubation
# Description: as §4, §5, §6
# [10] = system: human lymphoma cell line Raji; experiment: Caspase cascade activation in Raji cells; conditions: RAJ1 cells, 48 h incubation, read-out: caspase potency EC50 RAJ1
# Description: as §1, §2, §3
# [11] = system: human hepatocellular carcinoma cell line SNU398; experiment: Caspase cascade activation in SNU398 cells; conditions: SNU-398, 48 h incubation, read-out: caspase potency EC50 SNU398
# Description: as §1, §2, §3
EC50 [1],GI50 [2],GI50 [3],EC50 [4],GI50 [5],EC50 [6],EC50 [7],GI50 [8],GI50 [9],EC50 [10],EC50 [11],SMILES
321 nM,966 nM,126 nM,92 nM,124 nM,115 nM,662 nM,58 nM,2500 nM,198 nM,160 nM,"COc1ccccc1-c1nnc2sc(-c3cc4ccccc4o3)nn12 [Entry A1, 6-(Benzofuran-2-yl)-3-(2-methoxyphenyl)-[1,2,4]triazolo[3,4-b][1,3,4]thiadiazole]"
647 nM,549 nM,253 nM,356 nM,303 nM,379 nM,1540 nM,119 nM,1000 nM,678 nM,494 nM,"COc1cc(-c2nnc3sc(-c4ccc(C)cc4)nn23)cc(OC)c1OC [Entry B1, 6-p-Tolyl-3-(3,4,5-trimethoxyphenyl)-[1,2,4]triazolo[3,4-b][1,3,4]thiadiazole]"
2270 nM,2600 nM,1130 nM,1290 nM,1020 nM,1250 nM,1390 nM,647 nM,6830 nM,1410 nM,1650 nM,"COc1cccc(-c2nnc3sc(-c4ccc(N(C)C)cc4)nn23)c1 [Entry D1, 6-(4-Dimethylaminophenyl)-3-(3-methoxyphenyl)-1-[1,2,4]triazolo[3,4-b][1,3,4]thiadiazole]"
1200 nM,519 nM,167 nM,327 nM,332 nM,325 nM,1090 nM,146 nM,2040 nM,573 nM,556 nM,"CN(C)c1ccc(-c2nn3c(-c4ccccc4Cl)nnc3s2)cc1 [Entry E1, 3-(2-Chlorophenyl)-6-(4-dimethylaminophenyl)-[1,2,4]triazolo[3,4-b][1,3,4]thiadiazole]"
1720 nM,801 nM,372 nM,734 nM,303 nM,712 nM,666 nM,113 nM,694 nM,1020 nM,751 nM,"CCN(CC)c1ccc(-c2nn3c(-c4ccccc4C)nnc3s2)cc1 [Entry F1, 6-(4-Diethylaminophenyl)-3-o-tolyl-[1,2,4]triazolo[3,4-b][1,3,4]thiadiazole]"
1380 nM,405 nM,149 nM,593 nM,155 nM,575 nM,584 nM,41 nM,492 nM,627 nM,455 nM,"CCN(CC)c1ccc(-c2nn3c(-c4ccccc4Cl)nnc3s2)cc1 [Entry G1, 3-(2-Chlorophenyl)-6-(4-diethylaminophenyl)-[1,2,4]triazolo[3,4-b][1,3,4]thiadiazole]"
1330 nM,253 nM,142 nM,510 nM,350 nM,558 nM,864 nM,93 nM,1190 nM,634 nM,596 nM,"Cc1ccccc1-c1nnc2sc(-c3ccc(N(C)C)cc3)nn12 [Entry I1, 6-(4-Dimethylaminophenyl)-3-o-tolyl-[1,2,4]triazolo[3,4-b][1,3,4]thiadiazole]"
> 10000 nM,> 10000 nM,> 10000 nM,> 10000 nM,1460 nM,2440 nM,2420 nM,4990 nM,> 10000 nM,> 10000 nM,> 10000 nM,"COc1ccc(-c2nn3c(-c4cc(OC)c(OC)c(OC)c4)nnc3s2)cc1 [Entry S, 6-(4-Methoxyphenyl)-3-(3,4,5-trimethoxyphenyl)-[1,2,4]triazolo[3,4-b][1,3,4]thiadiazole]"
